A word on the IC50: it is the concentration at which inhibition is half-maximal. Low values mean greater potency in that assay, high ones weaker potency in that assay.

Values after ≈ are worked out from the molar mass of the structure shown. Values joined by “and” are separate entries in the source; they are usually repeats but may differ in a detail not shown here. Equal entries are not always repeated. Some results are limits rather than exact numbers.

Experiment [1] concerns Haemophilus influenzae. Description: Minimum inhibitory concentration required for primary screening against in-house strain of Haemophilus influenzae tested in vitro; Range- 0.12-16. The format is functional.
The subject of experiment [2] is Moraxella catarrhalis. Put plainly: Minimum inhibitory concentration required for primary screening against in-house strain of Moraxella catarrhalis tested in vitro; Range- 0.008-0.12. The format is functional.
The subject of experiment [3] is Streptococcus pneumoniae. Put plainly: Minimum inhibitory concentration required for primary screening against in-house strain of Streptococcus pneumoniae tested in vitro; Range- 0.008-1. The format is functional.
Another experiment relates to Escherichia coli. Put plainly: Minimum inhibitory concentration required for primary screening against in-house strain of Escherichia coli tested in vitro. In kind it is functional.
The test system of experiment [4] is Haemophilus influenzae. Description: Minimum inhibitory concentration required for primary screening against in-house strain of Haemophilus influenzae tested in vitro; Range- 0.06->/=16. The format is functional.
The subject of experiment [5] is Moraxella catarrhalis. Description: Minimum inhibitory concentration required for primary screening against in-house strain of Moraxella catarrhalis tested in vitro. The format is functional.
The test system of experiment [6] is Moraxella catarrhalis. Put plainly: Minimum inhibitory concentration required for primary screening against in-house strain of Moraxella catarrhalis tested in vitro; Range- 0.015-0.12. The format is functional.
The next experiment has as its target T1, Peptide deformylase (Escherichia coli, UniProt Q9JN24).
T1 sequence (Q9JN24 whole entry): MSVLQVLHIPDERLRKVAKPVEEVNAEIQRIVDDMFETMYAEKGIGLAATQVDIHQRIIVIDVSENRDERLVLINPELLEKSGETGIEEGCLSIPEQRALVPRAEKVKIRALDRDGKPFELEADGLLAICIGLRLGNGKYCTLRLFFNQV
Put plainly: Inhibitory activity against Escherichia coli peptide deformylase (PDF) Nickel containing enzyme.

The subject of another experiment is Staphylococcus capitis. Put plainly: Minimum inhibitory concentration required for primary screening against in-house strain of Staphylococcus capitis tested in vitro. In kind it is functional.
In experiment [7] the test system is Streptococcus pneumoniae. Description: Minimum inhibitory concentration required for primary screening against in-house strain of Streptococcus pneumoniae tested in vitro; Range- 0.25-0.5. In kind it is functional.
For experiment [8], the system named is Streptococcus pneumoniae. Description: Minimum inhibitory concentration required for primary screening against in-house strain of Streptococcus pneumoniae tested in vitro; Range- 0.25-2. In kind it is functional.
In experiment [9] the test system is Haemophilus influenzae. Put plainly: Minimum inhibitory concentration required for primary screening against in-house strain of Haemophilus influenzae tested in vitro; Range- 0.5-1. In kind it is functional.
Experiment [10] deals with Moraxella catarrhalis. Put plainly: Minimum inhibitory concentration required for primary screening against in-house strain of Moraxella catarrhalis tested in vitro; Range = 0.015-0.12. In kind it is functional.
The subject of experiment [11] is Streptococcus pneumoniae. Put plainly: Minimum inhibitory concentration required for primary screening against in-house strain of Streptococcus pneumoniae tested in vitro; Range- 2->8. The format is functional.
In experiment [12] the test system is Haemophilus influenzae. Put plainly: Minimum inhibitory concentration required for primary screening against in-house strain of Haemophilus influenzae tested in vitro; Range- 0.06-8. The format is functional.

On to `CC1(C)S[C@@H]2[C@H](NC(=O)[C@H](N)c3ccc(O)cc3)C(=O)N2[C@H]1C(=O)O.O=C(O)[C@H]1/C(=C/CO)O[C@@H]2CC(=O)N21`, for which the MIC90 against Haemophilus influenzae [1] is 1 µg/mL; against Moraxella catarrhalis [2], 0.12 µg/mL; against Streptococcus pneumoniae [3] it was 1 µg/mL.

On to `CC(C)(C)[C@H](NC(=O)[C@H](CC1CCCC1)CN(O)C=O)C(=O)c1ccc(N2CCOCC2)cc1`, for which the MIC is 12.5 µM (≈ 5.92 µg/mL) against Escherichia coli; 0.125 µg/mL (≈ 0.264 µM) in the experiment with Moraxella catarrhalis [5]; 1.5 µM (≈ 0.71 µg/mL) in the experiment on Staphylococcus capitis; < 0.5 µg/mL with Streptococcus pneumoniae [7]; < 1 µg/mL against Haemophilus influenzae [9]. Further, the values for the MIC90 against Haemophilus influenzae [4], with Moraxella catarrhalis [6] and against Streptococcus pneumoniae [8] were 4 µg/mL (≈ 8.45 µM), 0.12 µg/mL (≈ 0.253 µM) and < 2 µg/mL, respectively. In addition, the IC50 against Peptide deformylase was 6 nM and 2 nM.

In the case of `CCCC[C@H](CN(O)C=O)C(=O)N[C@H](C(=O)N(C)C)C(C)(C)C`, the MIC90 against Moraxella catarrhalis [10] is 0.12 µg/mL (≈ 0.364 µM); against Streptococcus pneumoniae [11], > 16 µg/mL; in the experiment with Haemophilus influenzae [12], 2 µg/mL (≈ 6.07 µM).

The values are drawn from ChEMBL document CHEMBL1137072, “Peptide deformylase inhibitors with activity against respiratory tract pathogens” (Bioorg Med Chem Lett, 2004).
